# Data: publication PMC7214591, “Biotransformation of 5-hydroxymethylfurfural into 2,5-dihydroxymethylfuran by Ganoderma sessile and toxicological assessment of both compounds” (AMB Express, 2020)
# Legend:
# [1] = tested on: human skin fibroblast cells; design: method as in Frade et al. [2014]; conditions: ref Frade et al. [2014]; cited from earlier work
# [2] = Cytotoxicity test, CCK-8, 24 h; format: cell-based; conditions: human, HCT-8 cells
# Experimental: (§1) Cell lines HCT-8 (3111C0001CCC000104) and A549 (3131C0001000700150) were obtained from National Infrastructure of Cell Line Resource (Beijing, China). SGC-7901 cell line was purchased from Suer Shengwu (Shanghai, China). All cells maintained in a humidified atmosphere at 37 °C and 5% CO2 in RPMI 1640 supplemented with 10% FBS and 1% Penicillin–Streptomycin solution. Cells were seeded in 96-well plates at a density of 8 * 10^3 cells per well and then incubated with various concentrations of 5-HMF and DHMF (Additional file 2: Table S2) for 24 h, respectively. Subsequently, culture supernatant was removed. HCT-8 cells were incubated in 100 μL fresh basal medium and 10 μL CCK-8 solution at 37 ℃ for 2 h. The optical density (OD) value of each well was measured at 450 nm using spectrophotometer (Multiskan Go 1510, Thermo, US); A549 and SGC-7901 cells were incubated in 100 μL MTT solution (1 mg/mL) at 37 ℃ for 4 h. Subsequently, the liquid was removed and dissolved the formazan with 150 μL DMSO, and the OD value was measured at 490 nm. Cell viability was given in a percentage of the control group. All data repeated for three times.
# [3] = Cytotoxicity test, MTT, 24 h; format: cell-based; conditions: human
# Experimental: as §1
# [4] = tested on: Female Sprague–Dawley rats; experiment: Acute oral toxicity assessment (OECD 423)
# Experimental: The temperature in the experimental animal room was 22 ± 1 °C and the relative humidity was 60% ± 5%, additionally, lighting conditions was 12-h light/dark cycle.
# Twenty-four rats were randomly divided into five groups. Six rats were in the control group as well as the high-dose groups, and three rats were in the low-dose groups. Before the experiment, all rats needed to be […] overnight. Briefly, the control group received distilled water while experimental groups were orally treated with test compounds at a single dose of 300 mg/kg 5-HMF, 300 mg/kg DHMF, 2000 mg/kg 5-HMF, and 2000 mg/kg DHMF, respectively. The animals were monitored periodically during the first 24 h, especially the opening 30 min and 4 h, after drug oral treatment for any signs of toxicity. The rats were further observed for 14 days. Moreover, the body weight was measured at the first and last day. At the end of experiment, all rats were anaesthetized and their brains, hearts, lungs, livers, kidneys, and spleens were collected, weighed and observed macroscopically.
# [5] = tested on: mice; design: method as in Bauer Marinovic et al. [2012]; conditions: dose up to 536 mg/kg, drinking water for 12 weeks, ref Bauer Marinovic et al. [2012]; cited from earlier work
# [6] = rats, 300 mg/kg single oral dose, after 14 days, n = 3
# [7] = rats, 2000 mg/kg single oral dose, after 14 days, n = 6
structure (smiles),measurement,setting,value
"O=Cc1ccc(CO)o1 [5-HMF, 5-hydroxymethylfurfural]",Cytotoxicity,[1],none cytotoxic
same,IC50 at 24 h,[2],9.94 mM
same,IC50 at 24 h,[3]; A549 cells,7.14 mM
same,IC50 at 24 h,[3]; SGC-7901 cells,8.42 mM
same,Abnormal behaviours,"[4]; female, Sprague-Dawley, rat, in vivo, po, 300 mg/kg","During the first 30 min, all rats became quitter and slightly weaker than the control, and returned to normal within 1 h"
same,Abnormal behaviours,"[4]; female, Sprague-Dawley, rat, in vivo, po, 2000 mg/kg","Rat numbered 1 emerged convulsions, lethargy, convulsions, and limb weakness during the first 30 min, showed somnolence and decrease of animal heat in the next 30 min; others only behaved a quiet symptom, all rats returned to normal within 1 h"
same,LD50 cut-off,"[4]; rat, in vivo, po, 300 mg/kg",greater than 2000 mg/kg B.W.
same,"Organs index, Brain","[4]; rat, in vivo, po, 300 mg/kg",0.74 ± 0.02 g/100 g of body weight
same,"Organs index, Heart","[4]; rat, in vivo, po, 300 mg/kg",0.35 ± 0.03 g/100 g of body weight
same,"Organs index, Kidney","[4]; rat, in vivo, po, 300 mg/kg",0.75 ± 0.06 g/100 g of body weight
same,"Organs index, Liver","[4]; rat, in vivo, po, 300 mg/kg",3.06 ± 0.19 g/100 g of body weight
same,"Organs index, Lung","[4]; rat, in vivo, po, 300 mg/kg",0.52 ± 0.02 g/100 g of body weight
same,"Organs index, Spleen","[4]; rat, in vivo, po, 300 mg/kg",0.25 ± 0.01 g/100 g of body weight
same,"Organs index, Brain","[4]; rat, in vivo, po, 2000 mg/kg",0.74 ± 0.05 g/100 g of body weight
same,"Organs index, Heart","[4]; rat, in vivo, po, 2000 mg/kg",0.33 ± 0.02 g/100 g of body weight
same,"Organs index, Kidney","[4]; rat, in vivo, po, 2000 mg/kg",0.75 ± 0.07 g/100 g of body weight
same,"Organs index, Liver","[4]; rat, in vivo, po, 2000 mg/kg",2.83 ± 0.09 g/100 g of body weight
same,"Organs index, Lung","[4]; rat, in vivo, po, 2000 mg/kg",0.51 ± 0.04 g/100 g of body weight
same,"Organs index, Spleen","[4]; rat, in vivo, po, 2000 mg/kg",0.25 ± 0.06 g/100 g of body weight
same,Mortality,"[4]; rats, single oral dose 300 or 2000 mg/kg, 14-day observation",none of the rats died
same,Nephrotoxic effects,[5],mild nephrotoxic effects
"OCc1ccc(CO)o1 [DHMF, 2,5-dihydroxymethylfuran]",IC50 at 24 h,[2],26.6 mM
same,IC50 at 24 h,[3]; A549 cells,0.697 mM
same,IC50 at 24 h,[3]; SGC-7901 cells,0.33 mM
same,"Organs index, Brain",[4]; [6],0.68 ± 0.09 g/100 g of body weight
same,"Organs index, Heart",[4]; [6],0.32 ± 0.02 g/100 g of body weight
same,"Organs index, Kidney",[4]; [6],0.75 ± 0.07 g/100 g of body weight
same,"Organs index, Liver",[4]; [6],3.04 ± 0.26 g/100 g of body weight
same,"Organs index, Lung",[4]; [6],0.47 ± 0.01 g/100 g of body weight
same,"Organs index, Spleen",[4]; [6],0.22 ± 0.04 g/100 g of body weight
same,"Organs index, Brain",[4]; [7],0.79 ± 0.07 g/100 g of body weight
same,"Organs index, Heart",[4]; [7],0.32 ± 0.04 g/100 g of body weight
same,"Organs index, Kidney",[4]; [7],0.75 ± 0.06 g/100 g of body weight
same,"Organs index, Liver",[4]; [7],3.05 ± 0.17 g/100 g of body weight
same,"Organs index, Lung",[4]; [7],0.49 ± 0.03 g/100 g of body weight
same,"Organs index, Spleen",[4]; [7],0.22 ± 0.02 g/100 g of body weight
same,Abnormal behaviours,"[4]; rats, single oral dose 300 mg/kg, first 4 h, n = 3","During the first 30 min, all rats became quitter and slightly weaker than the control, and returned to normal within 1 h"
same,Abnormal behaviours,"[4]; rats, single oral dose 2000 mg/kg, first 4 h, n = 6","In the first 30 min, all rats were more active than control, then showed lethargic and dilatoriness, yet returned to normal after 30 min"
same,LD50 cut-off,"[4]; rats, single oral dose, OECD 423 annex 2c, starting dose 300 mg/kg",greater than 2000 mg/kg B.W.
